experiment: gradient 5% acetonitrile 3 min, to 50% in 2 min, to 85% in 15 min, held 3 min, 100 µL/min; details: column: Zorbax Extend-C18 2.1 x 50 mm; eluents: water / acetonitrile, 0.1% formic acid
Outline: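 Mixtures of ~100 pure standards were chromatographed on a Zorbax Extend-C18 column (2.1 × 50 mm, 1.8 μm) at 100 μL/min using water and acetonitrile, each with 0.1% formic acid. Detection used a quadrupole time-of-flight mass spectrometer in positive and negative ionization mode, and data collection spanned 3 months. Retention time was obtained from adduct peaks picked computationally and each checked manually.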

SMILES | RP-LC retention time [s]
COC(=O)c1ccccc1NC(=O)CN1C(=O)CN=C(c2ccccc2)c2ccccc21 | 958
COc1ccc(NC(=O)N2CCC(C)(C(=O)NCc3ccc4c(c3)OCO4)CC2)c(OC)c1 | 720
CCOc1ccc(-c2ccc(=O)n(CCc3nc(-c4ccc(F)cc4)no3)n2)cc1 | 815
Cc1ccc(-c2ncccc2CNS(=O)(=O)c2ccc(C)cc2)cc1 | 684
COCCC(=O)N1CCN(c2ncccc2-c2nnc(C(C)C)o2)CC1 | 666
CN1c2ccc(F)cc2C(=O)NC12CCN(C(=O)c1ccc(Cl)cc1)CC2 | 785
COC(=O)c1cc(S(=O)(=O)N2CCCC2C(=O)N2CCC(C)CC2)cn1C (configuration not stated) | 770
CC(C)n1c(=O)oc2cc(-c3noc(-c4cccc(Br)c4)n3)ccc21 | 1340
Cc1ccc(Sc2nccnc2N2CCCC(C(=O)NC3CCCCC3)C2)cc1 (configuration not stated) | 1150
CNC(=O)c1nc(C(=O)NCCc2ccc(OC)c(OC)c2)cs1 | 623
CC(=O)c1sc(NC(=O)c2ccccc2[N+](=O)[O-])nc1C | 679
O=C(Nc1nc(-c2ccccc2)cs1)c1c(-c2ccc(Cl)cc2)nc2n1CCS2(=O)=O | 1080
CC(C)NC(=O)c1ccc(OCC2CCCN2C(=O)c2cccs2)cc1 (configuration not stated) | 818
Cc1ccc(Cn2cc(-c3ccncc3)cc2C(=O)NCC2CC2)cc1 | 705
O=C(Cn1nc2c(SC3CCCCC3)nccn2c1=O)NC1CCCCC1 | 987
CC(C)CN(Cc1cccnc1)C1CN(S(=O)(=O)c2cn(C)cn2)C1 | 591
CSc1cccc(NC(=O)c2cnc(-c3ccc(F)cc3)nc2-c2ccncc2)c1 | 973
O=C(COc1ccc(F)cc1)NCC1(c2cccs2)CC1 | 882

More lines, now with the values ahead:

RP-LC retention time [s] | SMILES
783 | O=C(Nc1cccc(F)c1)N1CCN(c2ncccc2-c2nnc(C3CC3)o2)CC1
607 | O=C(NCc1ccc(F)cc1Cl)c1cn2c(n1)CCCC2
584 | O=C(NCCCN1CCCC1=O)c1ccc2ncnc(N3CCCCC3)c2c1
564 | CN(C)c1ccc(CNC(=O)C2CCN(c3cncnc3N3CCCCC3)CC2)cc1
649 | COc1cc(Nc2c(C(=O)N3CCCCC3C)cnc3nc(C)ccc23)cc(OC)c1 (configuration not stated)
736 | Cn1c(N2CCCC(C(=O)NCCCc3ccccc3)C2)cc(=O)n(C)c1=O (configuration not stated)
802 | CC(C)NC(=O)Cn1c(=O)c2cnc(-c3ccccc3)nc2n(C)c1=O
1030 | CC(C)CCNC(=O)c1nnc(-c2ccc(S(=O)(=O)N3CCCCC3)cc2)o1
865 | O=C(Cn1nc2c(N3CCc4ccccc4C3)nccn2c1=O)NC1CCCCC1
798 | CCc1cccc(NC(=O)Cn2nc3cc(C)nc(N4CCCC4)n3c2=O)c1
982 | O=C(CN1c2ccc(F)cc2-c2ccccc2S1(=O)=O)Nc1cccc(F)c1
654 | COc1ccc(OC)c(CNC(=O)CCC(=O)N2CCCn3nc(C)cc32)c1
628 | Cc1oc2c(c1C(=O)Nc1ccccc1Br)C1=NCCN1C=N2
697 | CCn1cnc(S(=O)(=O)N2CCC(C(=O)NCCc3ccccc3)CC2)c1
789 | Cc1ccc(-n2nc3c(N4CCCC(C(=O)NCc5ccc(Cl)cc5)C4)nnc(C)c3c2C)cc1 (configuration not stated)
698 | O=C(CCNc1c(-c2ccccc2)nc2cnccn12)NCc1cccc(F)c1
593 | Nc1ccc2ncnc(N3CCCCC3)c2c1
828 | Cc1nn(CC(=O)NC2CC2)c(=O)c2c(-n3cccc3)n(-c3cccc(F)c3)nc12
1370 | CCCc1ccc(S(=O)(=O)N2CCC(c3noc(-c4ccc(C)cc4)n3)CC2)cc1

— the METLIN SMRT retention time set (Domingo-Almenara et al. 2019)
